Laboratory results reported in patent publication US6610715B1, “Cathecol hydrazone derivatives, process for preparing the same and pharmaceutical composition containing the same” (Cheil Jedang Corporation, priority 2001, dated 2003).

System: Phosphodiesterase IV partially purified from human U937 cells
Assay: Inhibition of Phosphodiesterase IV Activity ([3H]cAMP hydrolysis, scintillation counting)
Type: biochemical
Details: 1.0 uM cAMP, 30° C., 20 minutes
Protocol: Compounds prepared by Examples 1 through 16 and Rolipram as control were tested on the inhibition of phosphodiesterase IV.
Phosphodiesterase IV partially purified from human U937 cells, test compound and 1.0 uM cAMP including 0.01 uM[^3H]cAMP were incubated at 30° C. for 20 minutes. The PDE reaction to convert cAMP into AMP was […] by boiling the reaction solution for 2 minutes. AMP was converted into adenosine by adding snake venom nucleotidase and incubating the reaction solution at 30° C. for 10 minutes. While unhydrolyzed cAMPs were bonded to AG1-X2 resin, the [^3H]adenosine in the aqueous solution was quantified by scintillation counting. The results are shown in Table I below, in which the values indicate inhibition (%) of the PDE IV by each test compound.

[1] = test compound concentration 2 uM
[2] = test compound concentration 20 uM

For `COc1ccc(/C=N/NC(=O)c2ccncc2)cc1OC1CCCC1` [EXAMPLE 1, (E)-3-cyclopentyloxy-4-methoxybenzaldehyde isonicotinic hydrazone], the “Inhibition (%) of the PDE IV” value [1] was 38.4% and the “Inhibition (%) of the PDE IV” value [2] was 66.7%.

In the case of `CCOC(=O)N/N=C/c1ccc(OC)c(OC2CCCC2)c1` [EXAMPLE 2, (E)-ethyl[(3-cyclopentyloxy-4-methoxyphenyl)methylene]hydrazinoformate], the “Inhibition (%) of the PDE IV” value [1] is reported as 46.7% and the “Inhibition (%) of the PDE IV” value [2] is reported as 63.7%.

In the case of `COc1ccc(/C=N/Nc2ccccc2)cc1OC1CCCC1` [EXAMPLE 3, (E)-3-cyclopentyloxy-4-methoxybenzaldehyde phenylhydrazone], the “Inhibition (%) of the PDE IV” value [1] is reported as 46.6% and the “Inhibition (%) of the PDE IV” value [2] is reported as 80.4%.

For `COc1ccc(/C=N/NC(C)=O)cc1OC1CCCC1` [EXAMPLE 4, (E)-3-cyclopentyloxy-4-methoxybenzaldehyde acetic hydrazone], the “Inhibition (%) of the PDE IV” value [1] was 51.7% and the “Inhibition (%) of the PDE IV” value [2] was 72.1%.

With `COc1ccc(/C=N/NC2=NCCN2)cc1OC1CCCC1` [EXAMPLE 6, (E)-3-cyclopentyloxy-4-methoxybenzaldehyde 2-imidazolinohydrazone] the “Inhibition (%) of the PDE IV” value [1] was 31.7% and the “Inhibition (%) of the PDE IV” value [2] was 58.3%.

`COc1ccc(/C=N/NC(N)=O)cc1OC1CCCC1` [EXAMPLE 7, (E)-2-[(3-cyclopentyloxy-4-methoxyphenyl)methylene]hydrazinecarboxamide] was tested, and the “Inhibition (%) of the PDE IV” value [1] was 66.2% and the “Inhibition (%) of the PDE IV” value [2] was 89.7%.

For `COc1ccc(/C=N/NC(N)=S)cc1OC1CCCC1` [EXAMPLE 9, (E)-2-[(3-cyclopentyloxy-4-methoxyphenyl)methylene]hydrazinecarbothioamide], the “Inhibition (%) of the PDE IV” value [1] was 69.0% and the “Inhibition (%) of the PDE IV” value [2] was 81.0%.

In the case of `COc1ccc(/C=N/Nc2ccc(Cl)cc2)cc1OC1CCCC1` [EXAMPLE 10, (E)-3-cyclopentyloxy-4-methoxybenzaldehyde 4chlorophenylhydrazone], the “Inhibition (%) of the PDE IV” value [1] is reported as 39.3% and the “Inhibition (%) of the PDE IV” value [2] is reported as 70.7%.

With `COc1ccc(/C=N/NC(=O)C[N+](C)(C)C)cc1OC1CCCC1` [EXAMPLE 11, (E)-2[(3-cyclopentyloxy-4-methoxyphenyl)methylene]hydrazinecarbonylmethyl(trimethyl)ammonium chloride] the “Inhibition (%) of the PDE IV” value [1] was 43.3% and the “Inhibition (%) of the PDE IV” value [2] was 45.1%.

For `COc1ccc(/C=N/N2CCCCC2)cc1OC1CCCC1` [EXAMPLE 13, (E)-N-piperidino-3-cyclopentyloxy-4-methoxyphenylmethaneimine], the “Inhibition (%) of the PDE IV” value [1] was 31.4% and the “Inhibition (%) of the PDE IV” value [2] was 73.3%.

In the case of `COc1ccc(/C=N/NC(=N)N)cc1OC1CCCC1` [EXAMPLE 14, (E)-2-[(3-cyclopentyloxy-4-methoxyphenyl)methylene]hydrazinecarboximidamide], the “Inhibition (%) of the PDE IV” value [1] is reported as 14.7% and the “Inhibition (%) of the PDE IV” value [2] is reported as 57.7%.

In the case of `COc1ccc(/C=N/Nc2ccccn2)cc1OC1CCCC1` [EXAMPLE 15, (E)-3-cyclopentyloxy-4-methoxybenzaldehyde 2-pyridinylhydrazone], the “Inhibition (%) of the PDE IV” value [1] is reported as 49.4% and the “Inhibition (%) of the PDE IV” value [2] is reported as 63.6%.

In the case of `COc1ccc(/C=N/Nc2ccccc2C(=O)O)cc1OC1CCCC1` [EXAMPLE 16, (E)-3-cyclopentyloxy-4-methoxybenzaldehyde 2-carboxyphenylhydrazone], the “Inhibition (%) of the PDE IV” value [1] is reported as 42.3% and the “Inhibition (%) of the PDE IV” value [2] is reported as 76.6%.

`COc1ccc(C2CNC(=O)C2)cc1OC1CCCC1` (stereo not shown) [Rolipram, reference compound] was tested, and the “Inhibition (%) of the PDE IV” value [1] was 62.5% and the “Inhibition (%) of the PDE IV” value [2] was 70.1%.
